Results taken from patent publication US9861694B2, “EGFR antagonist for the treatment of heart disease” (priority 2010, dated 2018).

Legend:
[1] = test system: adult cardiac myofibroblasts; test: Collagen I/III and TGF-β1 expression by real-time RT-PCR in treated cardiac myofibroblasts; format: cell-based, mice; conditions: for decrease in TGF-β1 levels / decrease in collagen I expression / decrease in collagen III expression: 10 ng/ml EGF, 24 hours
Protocol: (§1) Cardiac myofibroblast cultures were prepared from ventricles of WT and TIMP-3^−/− mice as previously described. Briefly, hearts were aseptically isolated from adult mice. The ventricles were minced and digested with collagenase and disapase. Fibroblasts subcultured for 2 generations were seeded on culture plates and used for all in vitro experiments. After 2 passages virtually all fibroblasts differentiate into myofibroblasts. Purity of myofibroblasts was verified by FSP-1 and α-smooth muscle actin double staining. Cell proliferation was assessed by Ki67 and FSP-1 double staining.
(§2) To determine the effect of EGF and TGF-β1 on collagen expression and synthesis, adult cardiac myofibroblasts subcultured for 2 generations were placed in low serum (5% FBS) for 24 hours and subsequently treated with either recombinant mouse EGF (rEGF, R&D […], CA) in DMEM containing 5% FBS and cultured for another 24 hours or with TGF-β1 (Millipore, Mass.) and cultured for another 48 hours. Cells were then harvested and experiments were conducted.
Total RNA was extracted from adult cultured myofibroblasts as well as LV tissue of WT and TIMP-3^−/− sham and the infarct region of MI mice 5 days post-surgery using Trizol as previously described. cDNA was synthesized using M-MLV reverse transcriptase (Invitrogen, ON). Real-time PCR was conducted using SYBR Green PCR Master Mix as per manufacturer's instructions (Applied Biological Materials, BC). 28S rRNA (house keeping gene) was used as a loading control since previous studies have shown that it is a reliable loading control especially for use in experiments with hypoxia and MI [13].

[2] = test system: adult cardiac myofibroblasts; test: Collagen I synthesis by PINP ELISA in conditioned media of treated cardiac myofibroblasts; format: cell-based, mice; conditions: for decrease in collagen I synthesis: 10 ng/ml EGF, 24 hours
Protocol: as §1, §2
Collagen I synthesis was assessed in the LV myocardium and in conditioned media collected for cultured myofibroblasts using a rat/mouse procollagen I N-terminal peptide (PINP) ELISA kit (IDS-Medicorp, Quebec) according to the manufacturer's instructions. The LV tissues of sham mice and the infarct regions of WT and TIMP-3^−/− mice 5 days post-MI were homogenized in PBS and centrifuged. The supernatant was then collected and protein concentrations were measured. For tissues, 25 μg of total protein was used, while for media, 10 μL of conditioned media was used in the assay. Measurements of absorbances were made using SpectraMax M5 microplate reader at a wavelength of 450 nm. Values are expressed as either ng collagen per mg myocardial tissue or ng/ml conditioned media.

[3] = 10 ng/ml TGF-β1 (high concentration), 48 hours, P<0.01

Substance | collagen I and III expression ([1]; 1 ng/ml TGF-β1 (low concentration), 48 hours, P<0.05) | collagen I expression [1, 3] | effect on collagen III compared to controls ([1]; 10 ng/ml TGF-β1 (high concentration), 48 hours, P=n.s.) | collagen I synthesis [2, 3] | effect on collagen I or III expression ([1]; 1 ng/ml EGF (low concentration)) | decrease in TGF-β1 levels ([1]; TIMP-3−/− myofibroblasts) | decrease in collagen I expression ([1]; TIMP-3−/− myofibroblasts) | decrease in collagen III expression ([1]; TIMP-3−/− myofibroblasts) | decrease in TGF-β1 levels ([1]; WT myofibroblasts) | decrease in collagen I expression ([1]; WT myofibroblasts) | decrease in collagen III expression ([1]; WT myofibroblasts) | decrease in collagen I synthesis ([2]; TIMP-3−/− myofibroblasts) | decrease in collagen I synthesis ([2]; WT myofibroblasts)
TGF-β1: human recombinant transforming growth factor-beta 1 (Millipore) used to treat cardiac myofibroblasts | significant increase | further increase | no effect | further increase | – | – | – | – | – | – | – | – | –
EGF: recombinant mouse epidermal growth factor (rEGF) used to treat cardiac myofibroblasts | – | – | – | – | little effect | 43% | 47% | 51% | 22% | 38% | 41% | 39% | 28%
